The target in series [1] is T1, Vitamin D3 receptor (Bos taurus) (UniProt Q28037).
T1 sequence (whole entry): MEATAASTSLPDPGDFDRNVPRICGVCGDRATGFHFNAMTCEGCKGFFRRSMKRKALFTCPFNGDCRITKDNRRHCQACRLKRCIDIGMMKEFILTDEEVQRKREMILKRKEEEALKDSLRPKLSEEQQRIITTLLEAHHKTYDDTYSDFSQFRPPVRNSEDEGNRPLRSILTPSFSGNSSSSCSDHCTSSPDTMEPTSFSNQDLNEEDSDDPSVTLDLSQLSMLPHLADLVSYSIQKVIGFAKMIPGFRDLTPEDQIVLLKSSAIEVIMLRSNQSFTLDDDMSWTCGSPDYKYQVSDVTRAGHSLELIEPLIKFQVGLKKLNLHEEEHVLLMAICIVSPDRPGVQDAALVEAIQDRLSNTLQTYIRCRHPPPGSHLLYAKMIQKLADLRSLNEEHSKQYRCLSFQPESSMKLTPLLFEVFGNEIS
Nature of the series: Binding affinity to bovine thymus VDR relative to 1-alpha,25-dihydroxyvitamin D3.

Series [2] has as its target T1, Vitamin D3 receptor (Bos taurus). Nature of the series: Displacement of [3H]1-alpha,25-dihydroxyvitamin D3 from calf thymus VDR by liquid scintillation counting. In general terms: Displacement assays read how much labelled ligand stays bound in the presence of the test substance.
Series [3] addresses T2, 1,25-dihydroxyvitamin D(3) 24-hydroxylase, mitochondrial (Homo sapiens, UniProt Q07973).
T2 sequence (Q07973 whole entry): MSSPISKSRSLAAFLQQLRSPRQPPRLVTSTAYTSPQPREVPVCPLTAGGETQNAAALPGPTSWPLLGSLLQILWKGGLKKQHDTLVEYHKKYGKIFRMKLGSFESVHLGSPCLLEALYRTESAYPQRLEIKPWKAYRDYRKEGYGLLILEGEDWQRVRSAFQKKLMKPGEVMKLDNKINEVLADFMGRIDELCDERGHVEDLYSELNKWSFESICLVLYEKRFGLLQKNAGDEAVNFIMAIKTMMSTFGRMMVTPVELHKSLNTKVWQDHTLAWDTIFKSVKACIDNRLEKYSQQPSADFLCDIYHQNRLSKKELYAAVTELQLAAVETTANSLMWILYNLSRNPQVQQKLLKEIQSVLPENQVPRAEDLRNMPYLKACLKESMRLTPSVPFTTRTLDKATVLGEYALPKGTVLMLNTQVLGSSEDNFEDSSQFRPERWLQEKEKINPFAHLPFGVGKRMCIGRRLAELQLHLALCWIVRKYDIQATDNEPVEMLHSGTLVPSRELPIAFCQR
The series can be described thus: Binding affinity to human CYP24A1 expressed in Escherichia coli assessed as catalytic efficiency after 60 mins relative 1-alpha,25-dihydroxyvitamin D3. The following applies: 1 h.

The target of series [4] is T3, Vitamin D-binding protein (Homo sapiens) (UniProt P02774).
T3 sequence (whole entry): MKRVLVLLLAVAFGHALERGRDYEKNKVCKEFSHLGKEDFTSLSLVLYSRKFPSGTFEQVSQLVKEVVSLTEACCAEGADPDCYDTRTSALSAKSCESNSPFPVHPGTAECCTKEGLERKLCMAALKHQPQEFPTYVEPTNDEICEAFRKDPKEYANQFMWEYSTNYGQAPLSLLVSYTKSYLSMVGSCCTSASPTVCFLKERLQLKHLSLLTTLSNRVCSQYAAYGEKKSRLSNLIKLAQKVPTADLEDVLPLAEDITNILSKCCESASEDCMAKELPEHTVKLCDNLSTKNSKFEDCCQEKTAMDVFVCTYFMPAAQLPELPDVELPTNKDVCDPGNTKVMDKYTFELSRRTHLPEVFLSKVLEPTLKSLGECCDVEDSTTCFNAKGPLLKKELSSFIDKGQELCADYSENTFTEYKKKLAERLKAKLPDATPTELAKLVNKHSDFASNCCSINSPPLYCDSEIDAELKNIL
The series can be described thus: Binding affinity to vitamin D-binding protein relative to 1-alpha,25-dihydroxyvitamin D3.

The compound `C=C1/C(=C\C=C2/CCC[C@]3(C)[C@@H]([C@H](C)CCCC(C)(C)O)CC[C@@H]23)C[C@H](O)[C@@H](OCCC)[C@H]1O` yielded an Activity in series [1] of 64%.
Turning to `C=C1/C(=C\C=C2/CCC[C@]3(C)[C@@H]([C@H](C)CCCC(C)(C)O)CC[C@@H]23)C[C@H](O)[C@@H](OCCCO)[C@H]1O`, the values for the Activity in series [1], in series [2] and in series [3] were 180%, 180% and 2%, respectively.
For `C=C1/C(=C\C=C2/CCC[C@]3(C)[C@@H]([C@H](C)CCCC(C)(C)O)CC[C@@H]23)C[C@H](O)[C@H](OCCCO)[C@H]1O`, the Activity in series [4] came out at 2; in series [1], 13%.

For the origin of these results see ChEMBL document CHEMBL1152966, “Synthesis of 2alpha-propoxy-1alpha,25-dihydroxyvitamin D3 and comparison of its metabolism by human CYP24A1 and rat CYP24A1” (Bioorg Med Chem, 2009).
